Laboratory results taken from patent US4985352A (The Trustees of Columbia University in the City of New York, priority 1989, dated 1991).

System: NIH3T3 cells
Test: Flow cytometry of intracellular Ca2+ in control untransfected NIH3T3 cells
Assay type: cell-based, mouse
Conditions: untransfected NIH3T3 cells loaded with indo-1

For NCCc1c[nH]c2ccc(O)cc12 [serotonin, 5-hydroxytryptamine], the “Intracellular Ca2+ response to serotonin” value was “did not respond”.
